Measured values as given in patent US11254640B2, “N-substituted indoles and other heterocycles for treating brain disorders” (The Regents of the University of California, priority 2019, dated 2022).
“Also recorded” adds a separate entry of the source. Where two headings read alike, the source gives them in different places.

Legend:
rat cortical neurons = experiment: Neurite outgrowth assay; format: cell-based; settings: Cortical neurone, 1 hour treatment at DIV 4, analysed DIV 7, fold vs DMSO control
Summary of the method: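 Embryonic day 18 rat cortical neurons, 20,000 cells/well in Neurobasal/B27, were exposed at DIV 4 to 10 μM compound for 1 hour, then washed out. At DIV 7, β-III-tubulin immunostaining and automated imaging gave neurite length, branch points, root and extremity counts, reported as fold-change versus DMSO; triplicates.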

cortical neurons = experiment: Dendritogenesis assay, Sholl analysis; format: cell-based, rat; settings: for Emax at 10 µM: Rattus norvegicus, Cortical neurone, Nmax with vehicle (DMSO) = 0% and ketamine = 100%, read-out: % efficacy in sholls; for psychoplastogenic efficacy and potency, concentration-response (Nmax): concentrations ranging from 10 μM to 10 pM (FIG. 6)
Summary of the method: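 Rat cortical neurons (timed-pregnant Sprague Dawley) were treated at DIV3 with compound at 10 μM unless noted (0.1% DMSO) for 1 h, washed out, grown 71 h more. Fixed, MAP2-immunostained, imaged; Sholl Nmax, with % efficacy scaled to DMSO (0%) and ketamine (100%).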

C57BL/6J mice = experiment: Head twitch response (HTR) assay; format: in vivo, mouse; settings: intraperitoneal injection, head-twitches over 20 mins (FIG. 8, FIG. 9)
Description: Animals. For the dendritogenesis experiments, timed pregnant Sprague Dawley rats were obtained from Charles River Laboratories (Wilmington, Mass.). For the head-twitch response assay, male and female C57BL/6J mice were obtained from Jackson Laboratory (Sacramento, Calif.). Mice were housed in a temperature and humidity-controlled room maintained on a 12-h light/dark cycle in groups of 4-5 (same sex). Animals weighed between 17 and 30 g at the time of the experiments. All experimental procedures involving rodents were approved by the UC Davis Institutional Animal Care and Use Committee (IACUC) and adhered to principles described in the National Institutes of Health Guide for the Care and Use of Laboratory Animals. The University of California, Davis and the University of California, San Francisco are accredited by the Association for Assessment and Accreditation of Laboratory Animal Care International (AAALAC).
Head twitch response experiments. Mice (9-10 weeks old) were injected intraperitoneally with compound (injection volume 5 ml/kg), placed in an empty cage, and filmed for 20 minutes. Cages were cleaned with 70% ethanol between experiments.

rats = rats trained to discriminate DOM from saline, cited from earlier work
[1] = read-out: Neurite Average Length @ 10 μM
[2] = read-out: Neurite Branch Points: @ 10 μM

## COc1cccc2c1ccn2CCN(C)C.O=C(O)/C=C/C(=O)O [Example 3, 2-(4-methoxy-1H-indol-1-yl)-N,N-dimethylethan-1-amine]
Rat cortical neurons; [1]
  fold induction at 10 µM: < 1.5
Rat cortical neurons; [2]
  fold induction at 10 µM: 1.5 to 3
Cortical neurons; 10 μM
  Emax at 10 µM: 26%
other
  melting point: 140 to 145 °C

## COc1ccc2c(ccn2CCN(C)C)c1.O=C(O)/C=C/C(=O)O [Example 4, 2-(5-methoxy-1H-indol-1-yl)-N,N-dimethylethan-1-amine]
Rat cortical neurons; [1]
  fold induction at 10 µM: 1.5 to 3
Rat cortical neurons; [2]
  fold induction at 10 µM: 1.5 to 3
Cortical neurons; 10 μM
  Emax at 10 µM: 65%
Cortical neurons
  psychoplastogenic efficacy and potency, concentration-response (Nmax): exceptional psychoplastogen
C57BL/6J mice
  head-twitch response (hallucinogenic potential): low hallucinogenic potential; also recorded: did not produce any HTR
other
  melting point: 140 to 142 °C
rats
  substitution for hallucinogenic training drug (DOM) in drug discrimination: low hallucinogenic potential
rats; listed as 5-MeO-isoDMT
  substitution for hallucinogenic training drug (DOM) in drug discrimination: does not

## COc1ccc2ccn(CCN(C)C)c2c1 [Example 5, 2-(6-methoxy-1H-indol-1-yl)-N,N-dimethylethan-1-amine]
Rat cortical neurons; [1]
  fold induction at 10 µM: 1.5 to 3
Rat cortical neurons; [2]
  fold induction at 10 µM: 1.5 to 3
Cortical neurons; 10 μM
  Emax at 10 µM: 95%
Cortical neurons
  psychoplastogenic efficacy and potency, concentration-response (Nmax): comparable maximum efficacies and had similar potencies as isosteric DMTs (1 and 28)
Cortical neurons; cortical neurons, 10 μM
  dendritic arbor complexity / neuronal growth (Nmax of Sholl plots): performed identically to 28 and 29
C57BL/6J mice
  head-twitch response (hallucinogenic potential): significantly less potent
rats
  substitution for hallucinogenic training drug (DOM) in drug discrimination: substitutes

## COc1cccc2ccn(CCN(C)C)c12.O=C(O)/C=C/C(=O)O [Example 6, 2-(7-methoxy-1H-indol-1-yl)-N,N-dimethylethan-1-amine]
Rat cortical neurons; [1]
  fold induction at 10 µM: 1.5 to 3
Rat cortical neurons; [2]
  fold induction at 10 µM: 1.5 to 3
Cortical neurons; 10 μM
  Emax at 10 µM: 92%
other
  melting point: 120 to 123 °C

## COc1ccc2c(ccn2C[C@@H](C)N(C)C)c1 [Example 59, (R)-1-(5-methoxy-1H-indol-1-yl)-N,N-dimethylpropan-2-amine]
Rat cortical neurons; [1]
  fold induction at 10 µM: 1.5 to 3
Rat cortical neurons; [2]
  fold induction at 10 µM: > 3
C57BL/6J mice
  head-twitch response (hallucinogenic potential): did not produce any HTR

## C[C@H](Cn1ccc2cc(F)ccc21)N(C)C [Example 60, (R)-1-(5-fluoro-1H-indol-1-yl)-N,N-dimethylpropan-2-amine]
Rat cortical neurons; [1]
  fold induction at 10 µM: 1.5 to 3
Rat cortical neurons; [2]
  fold induction at 10 µM: 1.5 to 3
C57BL/6J mice
  head-twitch response (hallucinogenic potential): did not produce any HTR
